Reference: PMC7662523, “Evaluation of Polyhedral Oligomeric Silsesquioxane Porphyrin Derivatives on Photodynamic Therapy” (Molecules, 2020)

How the values were obtained:
MDA-MB-231 cells [1] = assay: Cell internalization by flow cytometry (percentage of positive cells); type: cell-based, human; settings: 0.5 µM, 24 h
Protocol: Six-well plates were prepared with 1 × 10^5 MDA-MB-231 cells per well in complete RPMI media (2 mL) and incubated at 37 °C in 5% CO2 for 48 h. The media was removed from each well and media solutions of control porphyrin (ATPP) and POSSPs 1–5 (2 mL, 0.5 µM) were added to the wells. The cells were incubated at 37 °C in 5% CO2 atmosphere for 24 h. The cell media was removed from the wells, and the cells were washed with phosphate buffer solution two times. The cells were incubated for 3–5 min in the presence of trypsin (500 µL). Cells were removed and transferred to a centrifuge tube. Media (500 µL) was added to each well to remove any remaining cells and mixed with the previous solution. The cell pellet was obtained after centrifugation (2.5k RPM, 10 min). The supernatant was discarded, and phosphate buffer solution (500 µL) was added to each tube. The cell pellet was mixed and transferred to flow cytometry tubes. The cell internalization of POSSP compounds was measured as the percentage of positive cells using a flow cytometer (BD LSRFortessa).

MDA-MB-231 cells [2] = assay: In vitro phototoxicity, MTS assay after red light (630 nm) irradiation; type: cell-based, human; settings: for phototoxicity (in words): highest concentration evaluated (0.5 µM), 630 nm light; for reduction in cell proliferation: 0.5 µM, 48 h incubation, 630 nm 24.5 mW/cm2 20 min
Protocol: (§1) The phototoxicities of ATPP, TAPP, compound 6 and POSSPs 1–5 were tested by using the MTS assay. For this study, MDA-MB-231 cells were seeded in a 96-well plate at a density of 5 × 10^3 cells per well in 100 µL of complete media and incubated at 37 °C in 5% CO2 atmosphere for 24 h. After removing the cell culture medium, POSSPs 1–5 at different concentrations (0.01–0.5 µM) were prepared in cell media from a stock solution in DMSO with a final volume of the organic solvent not larger than 1% vol. After 48 h of incubation in the presence of POSSPs, the culture media was removed, and the cells were washed twice with phosphate buffer solution. MDA-MB-231 cells were illuminated with the red light (630 nm) at a fluence rate of 24.5 mW/cm^2 for 20 min. Control experiments were maintained in the same conditions, but in the dark for the same interval of time. After irradiation, the media was replaced by fresh media and the cells were allowed to grow for an additional 24 h. The cyto- and phototoxicities of compound 6 and POSSPs 4 and 5 were also evaluated following the above described protocol, but using concentrations ranging 0.01–100 µM.
To quantify the phototoxic or dark toxicity effects of the experiments above described, the treated MDA-MB-231 cells were subjected to cell viability assay using the CellTiter 96® Aqueous solution assay. To perform the assay, the cell media was removed, and the cells were washed once with phosphate buffer solution. Fresh media (100 µL) together with 20 µL of CellTiter 96® was added into each well and incubated for 2–3 h at 37 °C in 5% CO2 atmosphere. Cell viability (%) was calculated as follows: viability = (Asample/Acontrol) × 100%, where Asample and Acontrol denote absorbance values of the sample and control wells measured at 490 nm, respectively. The results are reported as the average ± SD of three experiments. The IC50 values were determined using GraphPad Prism (v8.1.2 for macOS, La Jolla California, CA, USA) fitting the viability data to a sigmoidal curve mathematical model.

[3] = Singlet oxygen quantum yield, indirect method with DMA as 1O2 probe in DMF; type: physicochemical; settings: for ΦΔ (1O2 quantum yield): DMA probe, irradiated at 515 nm, relative to TPP (ΦΔ = 0.62), n = 3
Protocol: The ^1O2 quantum yield (ΦΔ) of the POSSP compounds in dimethyl formamide (DMF) was indirectly determined using 9,10-dimethylanthracene (DMA) as ^1O2 probe. DMA reacts with ^1O2, undergoing a 1,4-cycloaddition that is detected as a decrease in the intensity of the DMA absorption band at 379 nm.
The ^1O2 quantum yields (ΦΔ) were determined through an indirect method using dimethylanthracence (DMA) as the singlet oxygen probe. Several solutions containing DMF were air saturated and prepared with DMA (50 μM) and the POSSPs or parent porphyrins (TPP, ATPP, TAPP and compound 6) (5 μM). These solutions were covered with aluminum foil to avoid any premature quenching. Quartz cuvettes (1 cm × 1 cm) were filled with 1 mL of the solution, placed in a spectrofluorophotometer (xenon lamp, Shimadzu RF-5301 PC) and irradiated at 515 nm for 600 s. The absorbance decay of DMA was monitored at 380 nm, which was corrected from light scattering by subtracting the spectra of POSSPs. The ΦΔ was calculated using Equation (2). Φ∆,S = Φ∆,R (mSample/mRerefence) (1−10^−absReference/1−10^−absSample)(2) where Φ∆,S is the singlet oxygen quantum yield of the sample and m is the slope of the plotted data relative to the area of the emission peak against the absorption of the reference.

[4] = Partition coefficient (log POW) from n-butanol/water measurement; type: physicochemical; settings: n-butanol/water measured at 25 °C, converted with calibration equation
Protocol: The log POW values of the POSSPs and controls were first measured in an n-butanol/water mixture, and then correlated with corresponding values in n-octanol/water using a calibration curve reported in the literature. Distilled water and butanol were thoroughly mixed for 24 h at 25 °C to achieve solvent saturation in both phases. Then, the porphyrin derivatives were added to the mixture and the phases separated through a separatory funnel. The UV–Vis absorbance of the compounds in water and n-butanol was recorded at 420 nm. logPBW = log[(Ab/Aw)(Vw/Vb)](3) where Ab is the absorbance of n-butanol phase; AW is the absorbance of water phase; VW is the volume of water; and Vb is the volume of n-butanol. The partition coefficient of porphyrin derivatives in n-butanol/water was obtained using Equation (3). The log POW values were calculated using Equation (4). logPOW = −0.54 + 1.55 log(PBW)(4)

[5] = Fluorescence quantum yield, comparative method relative to TPP; type: physicochemical; settings: air-saturated, excitation 520 nm, relative to TPP in benzene, n = 3
Protocol: The fluorescence quantum yields (ΦF) were determined to indirectly characterize the efficiency with which the POSSP compounds undergo intersystem crossing (ISC) from the excited state to the triplet state, an essential step in ROS generation. […] In the case of POSSPs 4 and 5, no differences in the ΦF values were observed.
The fluorescence quantum yields for air-saturated solutions (ΦF) in THF (POSSPs 1–3) or DMSO (POSSPs 4 and 5) were determined using the comparative method. TPP was used as a reference with a fluorescence quantum yield of 0.12 in benzene. The POSSPs concentrations ranged from 0.1 to 10 µM (THF) for POSSPs 1–3 and from 3 to 15 µM (DMSO) for POSSPs 4 and 5. The excitation wavelength was 520 nm and the excitation and emission slit width were 2 nm. The fluorescence quantum yields were measured according to the comparative method described by Equation (1).

MDA-MB-231 cells [6] = assay: In vitro cytotoxicity in the absence of light, MTS assay; type: cell-based, human; settings: concentrations 0.01–100 µM, Figure S7
Protocol: as §1, with “MDA-MB-231 cells were illuminated with the red light (630 nm) at a fluence rate of 24.5 mW/cm^2 for 20 min. Control experiments were maintained in the same conditions, but in the dark for the same interval of time. After irradiation, the media was replaced by fresh media and the cells were allowed to grow for an additional 24 h.” left out
To quantify the phototoxic or dark toxicity effects of the experiments above described, the treated MDA-MB-231 cells were subjected to cell viability assay using the CellTiter 96® Aqueous solution assay. […] Cell viability (%) was calculated as follows: viability = (Asample/Acontrol) × 100%, where Asample and Acontrol denote absorbance values of the sample and control wells measured at 490 nm, respectively. […] The IC50 values were determined using GraphPad Prism (v8.1.2 for macOS, La Jolla California, CA, USA) fitting the viability data to a sigmoidal curve mathematical model.

[7] = reference value used for calculation; cited from earlier work
[8] = design: method as in PMID 10911728; settings: in benzene; cited from earlier work

Nc1ccc(-c2c3nc(c(-c4ccccc4)c4ccc([nH]4)c(-c4ccccc4)c4nc(c(-c5ccccc5)c5ccc2[nH]5)C=C4)C=C3)cc1 [ATPP, 5-(4-aminophenyl)-10,15,20-(triphenyl)porphyrin, reference compound]
internalization in cells (in words) (MDA-MB-231 cells [1]): high internalization
phototoxicity (in words) (MDA-MB-231 cells [2]): minimal PDT effect
ΦΔ value (in words) ([3]; Table S1): low ΦΔ value

CC(C)C[Si]12O[Si]3(CCCNC(=O)Nc4ccc(-c5c6nc(c(-c7ccccc7)c7ccc([nH]7)c(-c7ccccc7)c7nc(c(-c8ccccc8)c8ccc5[nH]8)C=C7)C=C6)cc4)O[Si]4(CC(C)C)O[Si](CC(C)C)(O1)O[Si]1(CC(C)C)O[Si](CC(C)C)(O2)O[Si](CC(C)C)(O3)O[Si](CC(C)C)(O4)O1 [POSSP 1]
reduction in cell proliferation (MDA-MB-231 cells [2]): 43 ± 4%
ΦΔ (1O2 quantum yield) [3]: 0.82 ± 0.01
log POW (in words) [4]: positive values
ΦF (fluorescence quantum yield) ([5]; in THF): 0.14 ± 0.01

O=C(NCCC[Si]12O[Si]3(c4ccccc4)O[Si]4(c5ccccc5)O[Si](c5ccccc5)(O1)O[Si]1(c5ccccc5)O[Si](c5ccccc5)(O2)O[Si](c2ccccc2)(O3)O[Si](c2ccccc2)(O4)O1)Nc1ccc(-c2c3nc(c(-c4ccccc4)c4ccc([nH]4)c(-c4ccccc4)c4nc(c(-c5ccccc5)c5ccc2[nH]5)C=C4)C=C3)cc1 [POSSP 2]
internalization in cells (in words) (MDA-MB-231 cells [1]): internalized in a much higher percentage than the other POSSPs
phototoxicity (in words) (MDA-MB-231 cells [2]): did not show significant phototoxicity
ΦΔ (1O2 quantum yield) [3]: 0.60 ± 0.02
log POW (in words) [4]: positive values
ΦF (fluorescence quantum yield) ([5]; in THF): 0.13 ± 0.01

NCCC[Si]12O[Si]3(CCCN)O[Si]4(CCCN)O[Si](CCCN)(O1)O[Si]1(CCCN)O[Si](CCCN)(O2)O[Si](CCCN)(O3)O[Si](CCCNC(=O)c2ccc(-c3c5nc(c(-c6ccccc6)c6ccc([nH]6)c(-c6ccccc6)c6nc(c(-c7ccccc7)c7ccc3[nH]7)C=C6)C=C5)cc2)(O4)O1 [POSSP 4]
reduction in cell proliferation (MDA-MB-231 cells [2]): 11 ± 2%
ΦΔ (1O2 quantum yield) [3]: 0.70 ± 0.01
log POW (in words) [4]: Negative log POW values
ΦF (fluorescence quantum yield) ([5]; in DMSO): 0.15 ± 0.01

C[N+](C)(C)CCC[Si]12O[Si]3(CCCNC(=O)c4ccc(-c5c6nc(c(-c7ccccc7)c7ccc([nH]7)c(-c7ccccc7)c7nc(c(-c8ccccc8)c8ccc5[nH]8)C=C7)C=C6)cc4)O[Si]4(CCC[N+](C)(C)C)O[Si](CCC[N+](C)(C)C)(O1)O[Si]1(CCC[N+](C)(C)C)O[Si](CCC[N+](C)(C)C)(O2)O[Si](CCC[N+](C)(C)C)(O3)O[Si](CCC[N+](C)(C)C)(O4)O1 [POSSP 5]
phototoxicity (in words) (MDA-MB-231 cells [2]): did not show significant phototoxicity
ΦΔ (1O2 quantum yield) [3]: 0.66 ± 0.01
log POW (in words) [4]: Negative log POW values
cytotoxicity at higher concentrations (in words) (MDA-MB-231 cells [6]): structural properties of the molecule also play a role in its toxicity
ΦF (fluorescence quantum yield) ([5]; in DMSO): 0.10 ± 0.01

C1=Cc2nc1c(-c1ccccc1)c1nc(c(-c3ccccc3)c3ccc([nH]3)c(-c3ccccc3)c3ccc([nH]3)c2-c2ccccc2)C=C1 [TPP, 5,10,15,20-(tetraphenyl)porphyrin]
ΦΔ (1O2 quantum yield) of reference [7]: 0.62
fluorescence quantum yield of reference [8]: 0.12
